Assay [1] concerns the target T1, C-C chemokine receptor type 5 (Homo sapiens, UniProt P51681). As to the kind of experiment: Positive allosteric modulation of human CCR5 expressed in HEK293T cells co-expressing CAMYEL assessed as increase in CCL4-induced inhibition of forskolin-stimulated cAMP accumulation after 10 mins by BRET assay. Format: functional, cell-based, HEK-293T. On the technique in general: Cyclic AMP is a second messenger, typically raised through Gs and lowered through Gi signalling.
Target sequence in this assay (P51681 whole entry): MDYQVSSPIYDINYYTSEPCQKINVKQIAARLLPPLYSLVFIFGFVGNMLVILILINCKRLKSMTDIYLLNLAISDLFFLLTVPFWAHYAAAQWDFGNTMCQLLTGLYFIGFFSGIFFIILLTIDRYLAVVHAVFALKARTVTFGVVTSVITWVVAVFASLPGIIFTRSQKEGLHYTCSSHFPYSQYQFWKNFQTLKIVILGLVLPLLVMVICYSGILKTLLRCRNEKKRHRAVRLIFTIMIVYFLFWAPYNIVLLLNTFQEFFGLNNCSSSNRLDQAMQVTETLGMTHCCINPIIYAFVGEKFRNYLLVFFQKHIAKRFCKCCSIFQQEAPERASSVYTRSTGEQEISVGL

Assay [2] addresses T1, C-C chemokine receptor type 5. The assay can be described thus: Displacement of [3H]TAK-779 from CCR5 (unknown origin) at 1 uM after 120 mins by scintillation counting method relative to control. (Loss of bound radioactivity is the signal in a displacement assay; it reports binding, not function.)
Target sequence in this assay (P51681 whole entry, looked up): as the sequence (P51681 whole entry) above
The target in assay [3] is T2, C-C chemokine receptor type 2 (Homo sapiens, UniProt P41597). The assay can be described thus: Displacement of [3H]INCB3344 from human CCR2 expressed in human U2OS cells at 1 uM after 120 mins by scintillation spectrometric analysis relative to control. The format is cell-based.
Target sequence in this assay (P41597 whole entry, looked up): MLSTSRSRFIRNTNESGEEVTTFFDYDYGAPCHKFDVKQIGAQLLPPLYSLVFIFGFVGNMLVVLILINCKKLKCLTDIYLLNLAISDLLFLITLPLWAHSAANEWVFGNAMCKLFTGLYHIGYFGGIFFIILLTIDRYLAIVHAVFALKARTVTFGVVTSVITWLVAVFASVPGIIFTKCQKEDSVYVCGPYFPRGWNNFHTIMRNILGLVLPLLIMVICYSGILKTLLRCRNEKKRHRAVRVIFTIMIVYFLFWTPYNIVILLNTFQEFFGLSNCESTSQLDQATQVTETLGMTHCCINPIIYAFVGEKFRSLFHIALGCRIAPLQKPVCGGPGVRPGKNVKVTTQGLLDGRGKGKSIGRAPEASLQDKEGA
Assay [4] deals with T2, C-C chemokine receptor type 2. The assay can be described thus: Antagonist activity at human CCR2b expressed in human Chem1 cells assessed as inhibition of human recombinant CCL2 induced Ca2+ mobilization preincubated for 10 mins followed by CCL2 induction measured every sec for 120 secs by Fluo-4-AM dye-based fluorescence assay. The format is functional, cell-based.
Target sequence in this assay (P41597 whole entry): as the sequence (P41597 whole entry, looked up) above
Assay [5] has the same target. The assay can be described thus: Displacement of [3H]INCB3344 from human CCR2 expressed in human U2OS cells after 120 mins by scintillation spectrometric analysis. The format is cell-based.
Target sequence in this assay (P41597 whole entry): as the sequence (P41597 whole entry, looked up) above
Assay [6] concerns the target T1, C-C chemokine receptor type 5. The assay can be described thus: Negative allosteric modulation of human CCR5 expressed in HEK293T cells co-expressing CAMYEL assessed as decrease in CCL4-induced inhibition of forskolin-stimulated cAMP accumulation after 10 mins by BRET assay. Format: functional, cell-based. The settings on record: HEK-293T.
Target sequence in this assay (P51681 whole entry, looked up): as the sequence (P51681 whole entry) above
For assay [7] the target is unchanged. As to the kind of experiment: Negative allosteric modulation of human CCR5 expressed in HEK293T cells co-expressing CAMYEL assessed as decrease in CCL5-induced inhibition of forskolin-stimulated cAMP accumulation after 10 mins by BRET assay. The format is functional, cell-based. The following applies: HEK-293T.
Target sequence in this assay (P51681 whole entry, looked up): as the sequence (P51681 whole entry) above
Assay [8] has the same target. As to the kind of experiment: Intrinsic agonist activity at human CCR5 expressed in HEK293T cells co-expressing CAMYEL assessed as inhibition of forskolin-stimulated cAMP accumulation after 10 mins by BRET assay. The settings on record: HEK-293T. Format: functional, cell-based.
Target sequence in this assay (P51681 whole entry, looked up): as the sequence (P51681 whole entry) above
Assay [9] shares this target. The assay can be described thus: Positive allosteric modulation of human CCR5 expressed in HEK293T cells co-expressing CAMYEL assessed as increase in CCL5-induced inhibition of forskolin-stimulated cAMP accumulation after 10 mins by BRET assay. The following applies: HEK-293T. Format: functional, cell-based.
Target sequence in this assay (P51681 whole entry, looked up): as the sequence (P51681 whole entry) above
The target is the same in assay [10]. The assay can be described thus: Displacement of [3H]TAK-779 from CCR5 (unknown origin) after 120 mins by scintillation counting method.
Target sequence in this assay (P51681 whole entry): as above

Results on 9 molecules are retold here after ChEMBL document CHEMBL4033672, “Synthesis and biological evaluation of chemokine receptor ligands with 2-benzazepine scaffold” (Eur J Med Chem, 2017).

SMILES strings stand for the structures. Activity calls are given as the source filed them. No cut-off for these calls is given here. Where only a bound is given, the exact number is not on record here.

In the case of `CC(C)CN1CC(C(=O)Nc2ccc(CN(C)C3CCOCC3)cc2)=Cc2ccc(NS(C)(=O)=O)cc2C1=O`, the EC50 in assay [1] was over 0.01 µM. In addition, the inhibition in [2] is 0%; in assay [3], 18%.
Take `CC(C)CN1CC(C(=O)Nc2ccc(CN(C)C3CCOCC3)cc2)=Cc2ccc([N+](=O)[O-])cc2C1=O`: the EC50 in assay [1] was over 0.01 µM. Besides, the values for the inhibition in assay [2] and in [3] were 0% and 9%, respectively.
With `Cc1ccc(-c2ccc3c(c2)C(=O)N(CC(C)C)CC(C(=O)Nc2ccc(CN(C)C4CCOCC4)cc2)=C3)cc1`, the EC50 in [1] is over 0.01 µM. Moreover, the inhibition in assay [2] and in assay [3] was 0% in each case. Moreover, in [4], the IC50 was 3 µM.
Turning to `Cc1ccc(-c2ccc3c(c2)C=C(C(=O)Nc2ccc(CN(C)C4CCOCC4)cc2)CN(CC(C)C)C3=O)cc1`, the IC50 was found to be 0.387 µM in [5] and 0.14 µM in assay [4]. Moreover, the outcome in assay [6] and in [7] was Active. For the same molecule, the EC50 in [1] is over 0.01 µM. Moreover, the inhibition in [2] is 0%.
`CC(C)CN1CC(C(=O)Nc2ccc(S(=O)(=O)Nc3nccs3)cc2)=Cc2ccccc2C1=O`: the EC50 in [1] is over 0.01 µM. Besides, the inhibition is 0% in [2] and 18% in assay [3].
For `CC(=O)Nc1ccc2c(c1)C(=O)N(CC(C)C)CC(C(=O)Nc1ccc(CN(C)C3CCOCC3)cc1)=C2` the same measures were over 0.01 µM, 0% and 15%.
Take `CC(C)CN1CC(C(=O)Nc2ccc(CN(C)C3CCOCC3)cc2)=Cc2ccccc2C1=O`: the result in assay [8] and in [9] was inactive. Further, the EC50 in [1] is 2.47 µM. Moreover, the figures for the inhibition in [2] and in assay [3] were 0% and 18%, respectively.
Turning to `CC(C)CN1CC(C(=O)Nc2ccc(CN(C)C3CCOCC3)cc2)=Cc2c(cccc2[N+](=O)[O-])C1=O`, the EC50 in assay [1] is over 0.01 µM. The inhibition in assay [2] was determined as 0%; in [3] it was 6%.
In assay [10], `Cc1ccc(-c2ccc3c(c2)C=C(C(=O)Nc2ccc(C[N+](C)(C)C4CCOCC4)cc2)CCC3)cc1` showed an IC50 of 0.002 µM. Further, in [1], the EC50 was determined as 0.007 µM.

In general, EC50 refers to the midpoint of the concentration-response curve. By inhibition is commonly meant the share of the control response that was lost under treatment. The low end stands for a weak effect, the high end for a strong effect. In general, IC50 refers to the concentration that gives 50% inhibition.
